# Key:
# [1] = test system: CFU rich in H4 receptor; test: Proliferation of CFU rich in H4 receptor (FIG. 5); type: cell-based; details: for Activity on CFU proliferation when an anti H4 is used: with an anti H4
# [2] = molecular target: T1, histidine decarboxylase (Homo sapiens, UniProt P19113); details: background statement; cited from earlier work
# T1 sequence (P19113 1-662): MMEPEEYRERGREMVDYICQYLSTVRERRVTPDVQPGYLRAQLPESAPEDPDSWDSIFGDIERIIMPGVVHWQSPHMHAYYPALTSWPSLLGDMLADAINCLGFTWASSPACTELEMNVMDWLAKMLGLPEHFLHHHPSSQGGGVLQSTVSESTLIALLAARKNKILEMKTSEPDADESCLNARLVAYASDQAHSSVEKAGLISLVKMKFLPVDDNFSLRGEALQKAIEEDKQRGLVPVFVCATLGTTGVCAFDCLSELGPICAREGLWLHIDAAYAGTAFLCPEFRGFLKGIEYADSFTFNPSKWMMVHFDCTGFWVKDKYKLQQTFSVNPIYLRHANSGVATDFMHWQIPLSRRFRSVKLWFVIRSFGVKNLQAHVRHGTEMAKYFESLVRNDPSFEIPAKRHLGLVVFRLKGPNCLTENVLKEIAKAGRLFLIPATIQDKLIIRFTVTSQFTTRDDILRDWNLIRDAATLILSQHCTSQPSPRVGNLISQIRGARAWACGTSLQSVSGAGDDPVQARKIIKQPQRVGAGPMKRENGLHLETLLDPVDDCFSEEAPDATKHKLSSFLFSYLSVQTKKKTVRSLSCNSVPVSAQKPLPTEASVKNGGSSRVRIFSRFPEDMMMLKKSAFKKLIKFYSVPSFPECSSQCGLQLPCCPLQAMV
# [3] = test system: bleomycin mouse model of idiopathic pulmonary fibrosis (BL6 mice); test: Bleomycin mouse model: lung histology, semi-quantitative fibrosis score (Ashcroft score); type: in vivo, mice (C57/B16J
# Description: (§1) The bleomycin mouse protocol (BLM) was conducted with all of the mice of each group of 10 mice (species: C57/B16J, referred to further on as BL6); these are female mice 8 weeks old.
# The analyse of the Fibrosis was conducted with all the animals of each group, respectively. The extent of the fibrosis was analysed biochemically, histologically and cytologically using various quantitative and semi quantitative methods.
# All of the mice BL6 are treated according to the protocol hereinbelow. • 5 groups of mice were evaluated.
# The treatment with bleomycin (BLM) is done according to the following protocol:
# (§2) All of the mice of all of the groups (except group 1) receive bleomycin (BLM) intranasally (3 mg/kg via intranasal instillation) for 5 consecutive days and will be monitored daily and killed at D+29 after BLM instillation in order to study the chronic pulmonary inflammation and the fibrosis. The bleomycin being administered five times at the age of 8 weeks (see diagram 3A).
# (§3) The treatment with tritoqualine is done in 2 doses, 20 and 40 mg/kg/day throughout the entire life of the mice. The treatment with tritoqualine starts fourteen days after the first inhalation of the treatment with bleomycin. The treatment is done orally. The groups studied were as follows:
# After bronchoalveolar lavage (BAL) and perfusion of the lung, the large lobe was fixed in 4% buffered formaldehyde for standard microscopic analysis (Leica microscope). […] sections were coloured with Masson's trichrome (TM) by using standard techniques, which allow for the evaluation of the fibrosis (TM) as the fibres of collagen are coloured blue and the observation of the extent of the inflammation.
# The fibrosis was evaluated by a semi-quantitative score (0-5) (Ashcroft score) with the increase in severity by two independent observers.
# The fibrosis with the deposit of collagen located at the alveolar walls and in the peribronchial area and the infiltration of inflammatory cells were evaluated using a semi-quantitative score of 0-5 with an increasing severity by two independent observers.
# [4] = commercial white powder; degrades in Cotarnine and phthalic acid; cited from earlier work
# [5] = test system: TGFβ; test: Bleomycin mouse model: measurement of cytokines (TGFβ) in lung homogenate, Luminex assay; type: in vivo, mice (C57/B16J, BL6); details: BLM mice; P=0.001 for both substances; FIG. 1A
# Description: as §1, §2, §3
# The interferon gamma and TGFβ levels were measured in a lung homogenate; the concentrations of these different cytokines were determined by a Luminex assay using a MAGPIX (Biorad, France) according to the manufacturer's instructions.
# [6] = test system: collagen; test: Bleomycin mouse model: titration of collagen (hydroxyproline) in lung homogenate; type: in vivo, mice (C57/B16J, BL6); details: for Collagen (hydroxyproline), mean±standard deviation: BLM mice, n=10, bleomycin group 340.0±4.888
# Description: as §1, §2, §3
# The collagen content is done after homogenisation of the lung. After bronchoalveolar lavage (BAL), the entire lung was perfused with a saline solution through the right ventricle of the heart in order to empty the vascular content.
# The lungs were frozen at −70° C. until they were used. The lung was then homogenised in PBS and centrifuged.
# The supernatant was discarded and the lower portion was put back into suspension in 1 ml of PBS containing 0.5% hexadecyltrimethylammonium bromide (HTAB) and 5 mM ethylene-diamine-tetra-acetic acid (EDTA).
# After centrifugation, the collagen content was determined by the Sircol assay (France Biochem Division, France), as described by the manufacturer.
# The titration of the collagen (method by the dosage of hydroxyproline) is expressed in μg/mg of proteins.
# [7] = molecular target: histamine H4 receptor (Homo sapiens, UniProt Q9H3N8); details: shown in US 2010144718A; cited from earlier work
# Sequence of histamine H4 receptor (Q9H3N8 whole entry, species assumed): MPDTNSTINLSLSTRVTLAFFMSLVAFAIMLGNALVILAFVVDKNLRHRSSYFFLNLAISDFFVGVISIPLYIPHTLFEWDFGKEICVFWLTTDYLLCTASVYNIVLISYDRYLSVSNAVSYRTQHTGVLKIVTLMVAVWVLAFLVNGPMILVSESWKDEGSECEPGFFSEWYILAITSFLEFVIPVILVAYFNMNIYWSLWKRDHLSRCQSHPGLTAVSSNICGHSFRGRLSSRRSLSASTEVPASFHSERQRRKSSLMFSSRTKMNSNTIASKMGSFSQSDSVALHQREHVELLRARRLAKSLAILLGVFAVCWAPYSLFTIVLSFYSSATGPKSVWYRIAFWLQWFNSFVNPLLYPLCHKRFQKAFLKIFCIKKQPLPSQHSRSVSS
# [8] = test system: idiopathic pulmonary fibrosis; details: 1,800 mg/d for one year, in addition to corticoids and azathioprine, cited from earlier work
# [9] = pirfenidone 100 mg/kg po versus bleomycin
smiles,measurement,setting,value
"CCOc1c(N)c2c(c(OCC)c1OCC)C(C1c3c(cc4c(c3OC)OCO4)CCN1C)OC2=O (centres unmarked) [Tritoqualine, 7-Amino-4,5,6-triethoxy-3-(5,6,7,8-tetrahydo-4-methoxy-6-methyl-1,3-dioxolo[4,5-g]isoquinolin-5-yl) phthalide]",Effect on the proliferation of CFU rich in H4 receptor,[1],able to inhibit the proliferation of CFU
same,Activity on CFU proliferation when an anti H4 is used,[1],substantially diminished
same,Inhibiting activity on histidine decarboxylase,[2],very low
same,Efficacy on histology versus bleomycin (conclusion),"[3]; tritoqualine 20 mg/kg po, D14 to D28, P<0.0002",very high efficacy
same,Effect on the histological score,"[3]; tritoqualine at the dose of 20 or 40 mg/kg, po",substantially decreases the histological score
same,Stability to light,[4],highly sensitive to light
same,Effect on TGFβ in lung homogenate,[5],strongly inhibits
same,"Collagen (hydroxyproline), mean±standard deviation","[6]; tritoqualine 20 mg/kg po, P<0.0001",280.0±7.528 μg/mg of proteins
same,"Collagen (hydroxyproline), difference between the two means (treated versus bleomycin)",[6]; tritoqualine 20 mg/kg po versus bleomycin,−60.00±8.975 μg/mg of proteins
same,Action on the histamine H4 receptor,[7],very substantial action
CC(=O)N[C@@H](CS)C(=O)O [N-acetylcysteine],Average decrease in the decline of the forced vital capacity,[8]; (0.03-0.32),0.18 L
same,Decrease in the decline of the diffusion of CO,[8],24%
same,Mortality between the two groups,[8],no difference in mortality
same,Relative difference in the decline of the forced vital capacity,[8],9%
NC(=NCc1ccc(Cl)cc1)SCCCc1cnc[nH]1 [Clobenpropit],Activity on CFU proliferation when an anti H4 is used,[1],substantially diminished
"Cc1ccc(=O)n(-c2ccccc2)c1 [Pirfenidone, pirfenidone]","Histological semi-quantitative score (0-5) (Ashcroft score), mean±standard deviation","[3]; BLM mice, pirfenidone 100 mg/kg po, n=10, bleomycin group 4.2±0.14, P 0.0449",3.8±0.12
same,"Histological score, difference between the two means (treated versus bleomycin)",[3]; [9],−0.40±0.18
same,Effect on TGFβ in lung homogenate,[5],strongly inhibits
same,"Collagen (hydroxyproline), mean±standard deviation","[6]; pirfenidone 100 mg/kg po, P 0.0450",316.5±9.748 μg/mg of proteins
same,"Collagen (hydroxyproline), difference between the two means (treated versus bleomycin)",[6]; [9],−23.50±10.90 μg/mg of proteins

# — patent US10624884B2, “H4 agonist molecule for the treatment of idiopathic pulmonary fibrosis” (H4 ORPHAN PHARMA, priority 2016, dated 2020)
